Earlier results, collected in patent US6548270B1, “DNA encoding human acid-sensing ion channel BNaC4 (ASIC4)” (Ortho-McNeil Pharmaceutical, Inc., priority 2000, dated 2003).

Biological target: T1, MDEG1 + MDEG2 (Rattus norvegicus, UniProt Q62962)
T1 sequence (Q62962 1-512): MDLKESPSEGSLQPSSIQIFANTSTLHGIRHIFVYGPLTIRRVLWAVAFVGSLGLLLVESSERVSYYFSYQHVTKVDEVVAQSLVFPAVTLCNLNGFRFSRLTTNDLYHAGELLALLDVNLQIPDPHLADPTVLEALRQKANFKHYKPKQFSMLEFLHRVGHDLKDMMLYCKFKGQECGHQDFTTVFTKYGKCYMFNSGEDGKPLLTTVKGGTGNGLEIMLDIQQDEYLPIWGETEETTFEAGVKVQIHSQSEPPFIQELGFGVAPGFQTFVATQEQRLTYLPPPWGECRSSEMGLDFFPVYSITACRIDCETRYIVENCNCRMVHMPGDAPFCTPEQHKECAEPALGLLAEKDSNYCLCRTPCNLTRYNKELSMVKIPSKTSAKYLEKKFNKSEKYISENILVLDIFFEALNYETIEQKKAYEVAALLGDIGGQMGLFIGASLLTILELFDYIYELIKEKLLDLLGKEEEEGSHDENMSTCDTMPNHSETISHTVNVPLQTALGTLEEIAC
T1 sequence (Q62962 1-563 isoform Q62962-2): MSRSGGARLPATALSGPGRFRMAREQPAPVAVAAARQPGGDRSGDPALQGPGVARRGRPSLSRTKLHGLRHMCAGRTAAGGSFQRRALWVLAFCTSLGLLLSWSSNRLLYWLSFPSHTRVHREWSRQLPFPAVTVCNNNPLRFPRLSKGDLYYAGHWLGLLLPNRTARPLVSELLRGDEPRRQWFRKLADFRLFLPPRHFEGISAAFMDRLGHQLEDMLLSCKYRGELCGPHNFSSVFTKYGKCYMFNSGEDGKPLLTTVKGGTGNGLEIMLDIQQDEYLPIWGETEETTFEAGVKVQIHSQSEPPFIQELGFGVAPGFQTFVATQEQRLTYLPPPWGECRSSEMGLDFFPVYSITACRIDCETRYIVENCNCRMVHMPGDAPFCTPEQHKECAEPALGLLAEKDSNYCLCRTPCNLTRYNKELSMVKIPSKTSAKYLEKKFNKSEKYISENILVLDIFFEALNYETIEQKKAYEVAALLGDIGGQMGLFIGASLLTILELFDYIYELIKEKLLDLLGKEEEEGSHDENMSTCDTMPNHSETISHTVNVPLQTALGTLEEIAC
Details: 500 μM amiloride; cited from earlier work

For N=C(N)NC(=O)c1nc(Cl)c(N)nc1N [amiloride], which “Amiloride sensitivity (block)” value is on record?
The value was “MDEG1 + MDEG2 completely”.
